Experimental data reported in US9012365B2, “Compatibility agents for herbicidal formulations comprising 2,4-(Dichlorophenoxy) acetic acid salts” (priority 2006, dated 2015).
“And” between values parts separate entries of the source, which are not always exact repeats. Equal values may be shown once.

Assay: Appearance of 10 g solution of (2.5 wt % ai 2,4-D DMA + tested chemical) after adding 40% AMS
Type: physicochemical
Conditions: 2.5 wt % ai 2,4-D DMA; for Addition Weight of 40% AMS: System was cloud after adding / Addition Weight of 40% AMS: System was clear after adding: 10 g solution
Description: In this example, the appearance of a 10 g solution of (2.5 wt % ai 2,4-D DMA+tested chemical) was evaluated after adding 40% AMS

[1] = 0.13 wt % a.i. of tested chemical, 0 gram 40% AMS
[2] = 0.13 wt % a.i. of tested chemical
[3] = 1.25 wt % a.i. of tested chemical
[4] = 0.04 wt % a.i. of tested chemical
[5] = 0.05 wt % a.i. of tested chemical

| 0 gram Appearance [1] | Addition Weight of 40% AMS: System was cloud after adding [2] | Addition Weight of 40% AMS: System was clear after adding [2] | Compound | further results |
| --- | --- | --- | --- | --- |
| Clear | 0.488 grams |  | C8-10 + 4 EO phosphate ester (acid) |  |
| Clear | 0.217 grams |  | C8-10 glycosides [Agnique PG 8166] |  |
| Clear | 1.226 grams | 1.035 grams | C10-12 alcohol ethoxylate (5EO) |  |
| Clear | 1.033 grams and 1.026 grams | 0.829 grams and 0.903 grams | C10-12 alcohol ethoxylate (7EO) |  |
| Clear | 0.72 grams | 0.519 grams | C10-12 alcohol ethoxylate (9EO) |  |
| Clear | 0.918 grams | 0.819 grams | C11 alcohol ethoxylate (5EO) |  |
| very cloudy | 0 grams | very cloudy | Castor oil ethoxylate |  |
| Clear | 0.096 grams |  | Cocoamine-2EO oxide |  |
| Clear | 1.541 grams | 1.454 grams | Cocoamine-10EO |  |
| Clear | 0.163 grams |  | Ethoxylated (6EO) caprylic & capric glycerol ester |  |
| Clear | 0.324 grams |  | Iso C13 + 4EO phosphate ester (acid) |  |
| Clear | 2.045 grams | 1.732 grams | Iso C13 etheramine-5EO |  |
| Clear | 0.459 grams | 0.261 grams | Oleylamphopolycarboxyglycinate |  |
| Clear | 0.329 grams |  | Propyl glycosides |  |
| Clear | 2.546 grams | 1.896 grams | Sodium lauryl olefin sulfonate | 0 gram Appearance [5]: Clear; Addition Weight of 40% AMS: System was clear after adding [5]: 1.526 grams; Addition Weight of 40% AMS: System was cloud after adding [5]: 2.121 grams |
| Clear | 1.526 grams | 1.273 grams | Tallowamine-14EO |  |

The remaining lines, values behind:

| Compound | 0 gram Appearance [1] | Addition Weight of 40% AMS: System was cloud after adding [2] | Addition Weight of 40% AMS: System was clear after adding [2] | further results |
| --- | --- | --- | --- | --- |
| 2-ethylhexyl glycoside | Clear | 0.226 grams |  |  |
| 2-propylheptanol-5 EO | Clear | 0.633 grams |  |  |
| 2-propylheptanol-8EO | Clear | 0.526 grams | 0.43 grams |  |
| CCCCOCCOC(C)=O [Butyl cellosolve Acetate (C4—O—C—C—OOCC), Butyl cellosolve Acetate] | Clear | 0.324 grams | 0.162 grams |  |
| CCCCCCCCCCCC[N+](C)(C)CC(=O)[O-] [Lauryldimethyl betaine] |  |  |  | 0 gram Appearance [3]: Clear; Addition Weight of 40% AMS: System was clear after adding [3]: 0.693 grams; Addition Weight of 40% AMS: System was cloud after adding [3]: 0.913 grams |
| CCCCCCCCCCCCOS(=O)(=O)[O-].[Na+] [Sodium lauryl sulfate] |  |  |  | 0 gram Appearance [4]: Clear; Addition Weight of 40% AMS: System was cloud after adding [4]: 0.101 grams |
| Alkyl ether citrate | Clear | 0.509 grams |  |  |
| C6-10 isopropylamine alcohol ether sulfate | Clear | 0.712 grams | 0.528 grams |  |
| C8-10 glycosides [AG 6210] | Clear | 1.212 grams | 1 grams |  |
| C9-C11 glycoside | Clear | 0.272 grams |  |  |
| C10-12 alcohol ethoxylate (12EO) | Clear | 0.669 grams | 0.619 grams |  |
| Castor oil ethoxylate-20EO | Clear | 0.521 grams | 0.279 grams |  |
| Cocamide DEA | Clear | 0.987 grams | 0.701 grams |  |
| Coco duoamine-3EO | Clear | 4.058 grams | 3.521 grams |  |
| Cocoamine-5EO | Clear | 1.633 grams | 1.478 grams |  |
| Cocodimethylamidopropylamine | Clear | 1.731 grams | 1.488 grams |  |
| Cocotrimethyl Chloride | Clear | 2.123 grams | 2.038 grams |  |
| Di (propylene glycol) methyl ether | Clear | 0.829 grams | 0.665 grams |  |
| Ethoxylated (20EO) sorbitol ester | Clear | 1.25 grams | 1.037 grams |  |
| Na Cocoamphocarboxyglycinate |  |  |  | 0 gram Appearance [3]: Clear; Addition Weight of 40% AMS: System was clear after adding [3]: 0.25 grams; Addition Weight of 40% AMS: System was cloud after adding [3]: 0.508 grams |

| Compound | 0 gram Appearance [1] | Addition Weight of 40% AMS: System was cloud after adding [2] | Addition Weight of 40% AMS: System was clear after adding [2] | further results |
| --- | --- | --- | --- | --- |
| Nonylphenol-4EO | cloudy | 0 grams | cloudy |  |
| Nonylphenol-6EO (5EO) | Hazy | 0 grams | Hazy |  |
| Nonylphenol-9EO | Clear | 0.601 grams | 0.473 grams |  |
| Nonylphenol-9EO carboxylate | Clear | 1.692 grams | 1.312 grams |  |
| Nonylphenol-12EO | Clear | 0.502 grams | 0.415 grams |  |
| Nonylphenol-30EO | Clear | 0.584 grams | 0.487 grams |  |
| Octyliminodipropionate |  |  |  | 0 gram Appearance [3]: Clear; Addition Weight of 40% AMS: System was clear after adding [3]: 0.283 grams; Addition Weight of 40% AMS: System was cloud after adding [3]: 0.602 grams |
| Phenol ethoxylate | Clear | 0.577 grams |  |  |
| Polyoxyethylene Sorbitol Tallate | Clear | 0.71 grams | 0.661 grams |  |
| Sodium xylene sulfonate | Clear | 0.524 grams |  |  |
| Soya acid ethoxylate-10EO | Clear | 0.756 grams | 0.482 grams |  |
| Tall oil fatty acid amidoamine-10EO | Clear | 2.243 grams | 1.591 grams |  |
| Tall oil fatty acid-4EO | very cloudy | 0 grams | very cloudy |  |
| Tallow acid + triethanolamine + 10EO | Clear | 3.049 grams | 2.087 grams |  |
| Tallowamine-2EO | Clear | 1.513 grams | 1.31 grams |  |
| Tallowamine-6EO | Clear | 1.751 grams | 1.485 grams |  |
| Tallowamine-15EO methylchloride | Clear | 2.014 grams | 1.731 grams |  |
| Trideceth-4 | cloudy | 0 grams | cloudy |  |
| Trideceth-6 | Clear | 0.717 grams | 0.47 grams |  |
